Experimental data: PubChem BioAssay (NCI)
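48-hour exposure; five concentrations; linearly interpolated endpoints. At the GI50, growth is halved. TGI is the concentration that stops growth completely.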

Columns and labels:
Assay in all cases: NCI tumour cell line growth inhibition, 48 h
[1] = test system: LXFL 529 NSCLC
[2] = test system: NCI-H226 lung
[3] = test system: XF 498 CNS
[4] = test system: SNB-78 CNS
[5] = test system: KM20L2 colon
[6] = test system: HOP-18 NSCLC
[7] = test system: MDA-N
[8] = test system: MCF7 breast
[9] = test system: DU-145 prostate

Compound	TGI [1]	TGI [2]	TGI [3]	TGI [4]	TGI [5]	TGI [7]	TGI [8]	TGI [9]	also measured
CC1(C)CCc2cc3c(cc2O1)OC(C)(C)CC3=O	> 100 µM	> 100 µM	> 100 µM						
CN(C)C=O.CN(C)C=O.CN1C(C(=O)Nc2ccccn2)=C([O-])c2ccccc2S1(=O)=O.CN1C(C(=O)Nc2ccccn2)=C([O-])c2ccccc2S1(=O)=O.[Cu+2]	> 100 µM		34.4 µM	> 100 µM	> 100 µM				GI50 [4]: 64.3 µM; GI50 [1]: 27.8 µM; GI50 [5]: > 100 µM; GI50 [3]: 18.8 µM; GI50 [6]: > 100 µM; TGI [6]: > 100 µM
CCCCCCCCCCCCCCC(C(=O)[O-])[n+]1ccccc1 (stereo not drawn)		> 100 µM				> 100 µM	50.9 µM	> 100 µM	
COc1cc2c(cc1OCCCOc1cc3c(cc1OC)C(=O)N1CC(F)(F)C[C@H]1C=N3)N=C[C@@H]1CC(F)(F)CN1C2=O							11.4 µM	2.82 µM	GI50 [8]: 0.195 µM; GI50 [9]: 0.329 µM
COC(=O)C12OCC34C(CC5C(C)C6=CC(=O)OC6=CC5(C)C3C(O)C1O)OC(=O)C(OC(C)=O)C24 (stereo not drawn)	31.5 µM	53.2 µM	25.4 µM	48.7 µM	33.3 µM				TGI [6]: 27.9 µM
Cc1cccc(NC(N)=S)c1	> 100 µM		> 100 µM	> 100 µM					
NC(CCCNc1ccc(O)cc1)C(=O)O (stereo not drawn)	33.3 µM	> 100 µM	38.2 µM	> 100 µM	> 100 µM				TGI [6]: > 100 µM
NS(=O)(=O)c1ccc(C(=O)O)cc1						> 100 µM	> 100 µM	> 100 µM	
COc1ccc2c(c1)C(=O)c1c-2n(CCCCl)c(=O)c2cc([N+](=O)[O-])ccc12		> 100 µM						> 100 µM	GI50 [2]: < 0.01 µM; GI50 [8]: < 0.01 µM; GI50 [9]: 0.0361 µM
Nc1ccc([As](=O)(O)O)cc1		> 100 µM				> 100 µM	> 100 µM	> 100 µM	
Cn1ncc2c(=O)[nH]c(-c3ccccc3)nc21			> 100 µM	> 100 µM	> 100 µM				
CC(C)(c1ccccc1)c1ccc(Oc2ccc3c(c2)-c2nc-3nc3[nH]c(nc4nc(nc5[nH]c(n2)c2ccc(Oc6ccc(C(C)(C)c7ccccc7)cc6)cc52)-c2cc(Oc5ccc(C(C)(C)c6ccccc6)cc5)ccc2-4)c2ccc(Oc4ccc(C(C)(C)c5ccccc5)cc4)cc32)cc1	> 100 µM		> 100 µM	> 100 µM	> 100 µM				
O=C1CC(c2ccccc2)NCCCCN2CC(CN1)C(C(O)c1ccccc1)C2=O (stereo not drawn)		> 100 µM				> 100 µM	> 100 µM	> 100 µM	
O=C(O)\C=C/C=C/C=C/C=C/C(=O)O	> 100 µM	> 100 µM		> 100 µM	> 100 µM				TGI [6]: > 100 µM
CC1(C)CCCC2(C)C3=C(CCC12)C(=O)OC3 (stereo not drawn)		> 100 µM				> 100 µM	> 100 µM	> 100 µM	
